# Several values for one entry are separate records, joined by “and”; a condition that tells them apart may be missing. Equal entries are not always repeated. Entries after “also recorded” stand apart in the source; their conditions may differ. Marks after values point to notes of the source that are not given here.
# Columns and labels:
# [1] = test system: GABA recognition site (GABAA receptors) in native cerebellar membranes; assay: [3H]muscimol binding, rat cerebellar membranes; settings: for pseudo-Hill coefficient η, cerebellum: against 6 nM [3H]muscimol, mean ± S.E.M.
# [2] = molecular target: α4β3γ2 GABAA receptor (Rattus norvegicus, UniProt P28471+P63079); settings: for Current induced by compound alone, % of maximal GABA-induced current: 1 mM compound
# [3] = test system: GABA recognition site (GABAA receptors) in native cortical membranes; assay: [3H]muscimol binding, rat cortical membranes; settings: for Inhibition of muscimol binding at 100 μM (criterion for full binding analysis): cortical and cerebellar membranes (tissue not given); for pseudo-Hill coefficient η, cortex: against 6 nM [3H]muscimol, mean ± S.E.M.
# [4] = molecular target: T1, α3β3γ2 GABAA receptor (Rattus norvegicus, UniProt P20236+P63079)
# [5] = molecular target: T2, α1β3γ2 GABAA receptor (Rattus norvegicus, UniProt P62813+P63079); settings: for Current induced by compound alone, % of maximal GABA-induced current: 1 mM compound
# [6] = molecular target: α5β3γ2 GABAA receptor (Rattus norvegicus, UniProt P19969+P63079)
# [7] = molecular target: T1, α3β3γ2 GABAA receptor; assay type: cell-based; settings: 1 mM compound co-applied with approx. GABA EC20–25
# [8] = molecular target: α1R66Cβ2 GABAA receptor (Rattus norvegicus, UniProt P62813+P63138, R93C)
# [9] = molecular target: T3, α1β2 wt GABAA receptor (Rattus norvegicus, UniProt P62813+P63138); assay: Cysteine modification by MTS reagent, oocyte voltage clamp, wt; assay type: cell-based; settings: data not shown
# [10] = molecular target: T4, α1F64Cβ2 GABAA receptor (Rattus norvegicus, UniProt P62813+P63138, F91C)
# [11] = molecular target: α1S68Cβ2 GABAA receptor (Rattus norvegicus, UniProt P62813+P63138, S95C); assay type: cell-based; settings: read-out: Inhibition of the EC20 GABA current
# [12] = molecular target: T3, α1β2 wt GABAA receptor; assay type: cell-based
# [13] = molecular target: T4, α1F64Cβ2 GABAA receptor; assay type: cell-based
# [14] = molecular target: T2, α1β3γ2 GABAA receptor; assay type: cell-based; settings: 1 mM compound co-applied with approx. GABA EC20–25
# [15] = read-out: Inhibition of the EC20 GABA current
Compound,Inhibition of muscimol binding at 100 μM (criterion for full binding analysis) [3],"pseudo-Hill coefficient η, cortex [3]","pseudo-Hill coefficient η, cerebellum [1]",Potentiation of GABA-induced current [7],"Current induced by compound alone, % of maximal GABA-induced current [2]","Current induced by compound alone, % of maximal GABA-induced current [5]",other results
"Oc1nnc(C2CCCCC2)o1 [9d, 5-Cyclohexyl-3H-[1,3,4]oxadiazole-2-one]",,,,,,,"Percent inhibition of [3H]muscimol binding, cerebellum, 100 μM ([1]; 100 μM test compound, well-washed rat cerebellum membranes, mean ± S.D.): −11 ± 11 (3) %"
"Cl.NCc1nnc(O)o1 [5d, 5-Aminomethyl-3H-[1,3,4]oxadiazol-2-one Hydrochloride]",at least 30%,1.12 ± 0.13,0.90 ± 0.21,,,,"Hill coefficient (direct activation) [2]: 1.56 ± 0.11; EC50 [4]: 1000 µM; Hill coefficient (direct activation) ([4]; α3β3γ2, value of an extrapolated dose-response curve): 0.81 ^*; Hill coefficient (direct activation) [5]: 0.99 ± 0.05; Hill coefficient (direct activation) [6]: 1.31 ± 0.12"
"Cl.Oc1nnc(C2CCNCC2)o1 [5a, 5-Piperidin-4-yl-3H-[1,3,4]oxadiazol-2-one Hydrochloride]",at least 30%,0.86 ± 0.10,0.79 ± 0.06,22 ± 11%,less than 10%,less than 10%,"Effect of repeated application on subsequent GABA currents ([8]; repeated 10 s applications of 30 mM, α1R66Cβ2): did not decrease the subsequent GABA test currents; also recorded: did not irreversible alter the subsequent GABA currents"
Cl.NCCc1nnc(O)o1 [5g],at least 30%,0.63 and 0.63 ± 0.06,0.92 and 0.92 ± 0.11,,,,
"CS(=O)(=O)SCCS(=O)(=O)O [MTSES^−, 2-sulfonatoethyl methanethiosulfonate]",,,,,,,"Effect of MTS reagent on the GABA current [9]: did not affect the GABA current; Inhibition of subsequent GABA EC50 current, MTSES− alone (control) ([8]; 12 s, 2 mM MTSES−, α1R66Cβ2): 91 ± 3%; Inhibition of GABA EC50 currents after complete reaction with MTS reagent ([8]; α1R66C + β2, % ± S.E.M.): 62 ± 3 (4) %; Second-order reaction rate constant with the engineered cysteine ([8]; α1R66Cβ2): 48 ± 7 M⁻¹ s⁻¹; Reduction in subsequent GABA EC50 test currents, MTSES− alone (control) ([10]; 12 s, 10 μM MTSES−, α1F64Cβ2): 87% and 87 ± 3%; Inhibition of GABA EC50 currents after complete reaction with MTS reagent ([10]; α1F64C + β2, % ± S.E.M.): 89 ± 3 (4) %"
CS(=O)(=S)OCCNC(=O)CCCC[C@@H]1SC[C@@H]2NC(=O)N[C@@H]21 (stereo partly shown) [MTSEA-biotin],,,,,,,"Inhibition of subsequent GABA test currents, MTSEA-biotin alone (control) ([8]; 30 μM MTSEA-biotin, α1R66Cβ2, n = 2): 87% and 100%"
"Cl.Sc1nnc(C2CCNCC2)o1 [6a, 5-Piperidin-4-yl-3H-[1,3,4]oxadiazol-2-thione Hydrochloride]",at least 30%,0.99 ± 0.09,1.03 ± 0.08,114 ± 8%,less than 10%,less than 10%,"inhibition at 1000 µM [11]: > 90%; inhibition at 1000 µM [12, 15]: > 90%; 6a EC50 relative to wt [13]: 0.6 fold; inhibition at 1000 µM [13, 15]: > 90%"
"Cc1nnc(C2CCNCC2)o1.Cl [compound 19, 4-(5-Methyl-[1,3,4]oxadiazol-2-yl)-piperidine Hydrochloride]",at least 30%,0.88 ± 0.08,0.91 ± 0.05,11%,less than 10%,less than 10%,"Current induced by compound alone, % of maximal GABA-induced current ([4]; 1 mM compound, α3β3γ2): less than 10%; Potentiation of GABA-induced current [14]: 21%; Current induced by compound alone, % of maximal GABA-induced current ([6]; 1 mM compound): less than 10%"
"C=C(C)[C@@H]1[C@H]2OC(=O)[C@@H]1[C@]1(O)C[C@H]3O[C@]34C(=O)O[C@H]2[C@]14C [picrotoxinin, reference compound]",,,,,,,inhibition at 100 µM ([12]; read-out: Inhibition of 6a-induced currents): 80 to 90%
"Cl.NCc1nnc(S)o1 [6d, 5-Aminomethyl-3H-[1,3,4]oxadiazol-2-thione Hydrochloride]",at least 30%,0.92 ± 0.05,0.96 ± 0.12,,,,
